From article PMC3344384 (Chemistry & biology, 2011) come the findings set out here.

SMILES strings stand for the structures.

Test [1] concerns the target T1, caspase-6 (Homo sapiens, UniProt P55212).
T1 sequence (P55212 24-179 limits assumed): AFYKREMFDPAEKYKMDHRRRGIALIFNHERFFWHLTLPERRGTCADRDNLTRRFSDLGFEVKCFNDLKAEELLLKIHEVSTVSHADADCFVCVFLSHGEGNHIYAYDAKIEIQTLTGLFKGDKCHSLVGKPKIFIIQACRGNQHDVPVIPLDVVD
T1 sequence (P55212 194-293 limits assumed): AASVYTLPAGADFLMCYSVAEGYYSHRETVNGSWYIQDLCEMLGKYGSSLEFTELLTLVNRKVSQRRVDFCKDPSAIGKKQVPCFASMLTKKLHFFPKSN
In words: cysteine protease selectivity, caspase-6. It counts as biochemical.

Test [2] deals with T2, USP8 (Homo sapiens, UniProt P40818).
T2 sequence (P40818 1-1118): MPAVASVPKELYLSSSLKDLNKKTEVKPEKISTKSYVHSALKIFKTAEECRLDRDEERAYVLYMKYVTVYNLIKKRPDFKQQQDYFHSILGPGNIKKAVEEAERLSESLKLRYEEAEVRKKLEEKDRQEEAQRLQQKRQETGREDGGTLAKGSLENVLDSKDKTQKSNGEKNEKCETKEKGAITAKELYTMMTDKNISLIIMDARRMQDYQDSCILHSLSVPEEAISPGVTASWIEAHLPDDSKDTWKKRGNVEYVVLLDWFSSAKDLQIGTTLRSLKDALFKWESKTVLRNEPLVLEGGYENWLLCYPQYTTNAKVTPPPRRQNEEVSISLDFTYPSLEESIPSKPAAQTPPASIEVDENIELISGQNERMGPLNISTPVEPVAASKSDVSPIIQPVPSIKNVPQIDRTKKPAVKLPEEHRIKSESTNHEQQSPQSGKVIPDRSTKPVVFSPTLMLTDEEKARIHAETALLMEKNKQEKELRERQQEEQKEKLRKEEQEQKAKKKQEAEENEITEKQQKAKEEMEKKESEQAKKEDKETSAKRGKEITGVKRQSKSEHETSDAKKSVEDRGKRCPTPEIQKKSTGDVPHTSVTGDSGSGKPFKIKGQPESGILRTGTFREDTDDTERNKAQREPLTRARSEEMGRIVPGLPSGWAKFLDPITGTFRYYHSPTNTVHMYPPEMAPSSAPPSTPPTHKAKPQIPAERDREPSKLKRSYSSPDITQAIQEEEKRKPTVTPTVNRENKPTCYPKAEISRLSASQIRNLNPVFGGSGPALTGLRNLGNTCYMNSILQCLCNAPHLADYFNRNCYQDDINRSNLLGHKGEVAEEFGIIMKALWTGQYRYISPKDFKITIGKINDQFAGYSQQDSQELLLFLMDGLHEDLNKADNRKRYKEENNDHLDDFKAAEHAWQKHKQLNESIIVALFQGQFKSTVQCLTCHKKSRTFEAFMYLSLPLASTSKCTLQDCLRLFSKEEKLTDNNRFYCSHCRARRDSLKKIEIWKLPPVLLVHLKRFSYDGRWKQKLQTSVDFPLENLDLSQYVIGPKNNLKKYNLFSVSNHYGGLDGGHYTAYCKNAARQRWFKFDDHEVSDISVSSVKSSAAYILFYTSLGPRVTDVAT
The experiment in a line: K63-linked diubiquitin cleavage assay, USP8. As to conditions: for IC50 USP8: K63-linked diubiquitin substrate, NI = no significant inhibition at 114 μM.

For test [3], the target named is T3, SENP1 (Homo sapiens, UniProt Q9P0U3).
T3 sequence (Q9P0U3 1-644): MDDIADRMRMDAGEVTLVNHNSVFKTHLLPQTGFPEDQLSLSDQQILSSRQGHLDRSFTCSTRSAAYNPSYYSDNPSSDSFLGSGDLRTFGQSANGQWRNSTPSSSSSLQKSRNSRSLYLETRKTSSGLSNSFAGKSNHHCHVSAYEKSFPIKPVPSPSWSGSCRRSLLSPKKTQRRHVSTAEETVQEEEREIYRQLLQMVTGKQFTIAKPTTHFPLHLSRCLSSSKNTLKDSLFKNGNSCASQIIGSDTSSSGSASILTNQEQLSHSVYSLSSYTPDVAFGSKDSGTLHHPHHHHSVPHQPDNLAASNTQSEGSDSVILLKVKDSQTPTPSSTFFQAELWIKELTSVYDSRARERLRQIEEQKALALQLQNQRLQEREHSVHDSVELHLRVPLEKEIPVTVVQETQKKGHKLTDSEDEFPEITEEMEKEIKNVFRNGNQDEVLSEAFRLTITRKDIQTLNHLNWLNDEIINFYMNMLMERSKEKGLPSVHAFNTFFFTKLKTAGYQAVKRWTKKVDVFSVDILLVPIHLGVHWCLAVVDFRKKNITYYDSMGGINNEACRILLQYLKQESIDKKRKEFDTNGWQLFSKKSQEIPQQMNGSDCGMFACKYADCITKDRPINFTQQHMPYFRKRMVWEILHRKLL
The experiment in a line: SUMO1-AMC assay, SENP1. It counts as biochemical. The note with it: SUMO1-AMC substrate.

The target in test [4] is T4, papain (Carica papaya, UniProt P00784).
T4 sequence (P00784 134-345): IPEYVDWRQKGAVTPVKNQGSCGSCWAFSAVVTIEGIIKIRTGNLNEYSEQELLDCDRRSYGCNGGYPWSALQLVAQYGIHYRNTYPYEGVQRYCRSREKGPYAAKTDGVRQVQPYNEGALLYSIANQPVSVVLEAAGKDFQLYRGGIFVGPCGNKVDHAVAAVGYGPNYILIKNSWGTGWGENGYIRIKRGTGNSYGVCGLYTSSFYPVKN
In words: cysteine protease selectivity, papain. It counts as biochemical.

`CC(C)(Sc1ccc(CCN(CCCCC2CCCCC2)C(=O)NC2CCCCC2)cc1)C(=O)O` [GW7647]: the IC50 in test [1] is 21 µM; in test [4], around 130 µM. The “IC50 USP8” value in test [2] is given as “did not inhibit”. In test [3], the “inhibition of SENP1” value was “low level of inhibition”.

In the case of `O=c1[nH]c2ccccc2n1C1CCN(CCCC(c2ccc(F)cc2)c2ccc(F)cc2)CC1` [Pimozide, pimozide], the IC50 in test [1] and in test [4] was above 250 µM in each case. Moreover, the “IC50 USP8” value in test [2] was “No inhibition”. In addition, the “inhibition of SENP1” value in test [3] was “low level of inhibition”.

In the case of `CN1CCN(CCCN2c3ccccc3Sc3ccc(C(F)(F)F)cc32)CC1` [Trifluoperazine, trifluoperazine], the IC50 in test [1] is above 250 µM; in test [4], around 130 µM. Further, the “inhibition of SENP1” value in test [3] is “low level of inhibition”.

Regarding `OCCN1CCN(CCC=C2c3ccccc3Sc3ccc(C(F)(F)F)cc32)CC1` [Flupenthixol, flupenthixol], the IC50 in test [1] is above 250 µM; in test [2] it was above 114 µM; in test [4] it was above 250 µM. In addition, the “inhibition of SENP1” value in test [3] is on record as “low level of inhibition”.

One may read the IC50 as the point on the concentration scale where inhibition reaches its midpoint. Read a low IC50 as greater potency in that assay.
